Results on six compounds are retold here after patent publication US20080027023A1, “Antiproliferative Compositions Comprising Aryl Substituted Xylopyranoside Derivatives” (priority 2004, published 2008).

In one series the test system is rat C6 glioma cells. Kind of series: Cellular growth assay (crystal violet, A600), rat C6 glioma cells. In kind it is cell-based. The conditions noted are these: for growth-inhibitory effect compared to untreated cells (control): FIG. 1A; for effect on cell growth: FIG. 4; for inhibits growth: FIG. 1B. The source says: (§1) Cells were obtained from American type culture collection (ATCC, Rockville, Md.). Regular cell culture media, L-glutamine, penicillin-streptomycin, trypsin, and donor calf serum were obtained from Life Technologies. Dulbeccos Modified Earles Medium, medium 199 and Ham's F-12 medium were purchased from Sigma, difluoromethylornithine (DFMO) was from ILEX Oncology, San Antonio, Tex. Epidermal growth factor was purchased from Genzyme, Cambridge, Mass. and crystal violet from Merck, Germany.
(§2) Cells were cultured as monolayers in Dulbeccos Modified Earles Medium (DMEM) supplemented with 10% (v/v) fetal bovine serum, 2 mM L-glutamine, penicillin (100 U/mL) and streptomycin (100 μg/mL) in an incubator with humidified atmosphere and 5% CO2 at 37° C.
(§3) The growth assay procedure has been described elsewhere (Mani et al., 1998, Cancer Res. 58: 1099-1104). Cells were seeded into 96-well microculture plates at 3000 cells/well in DMEM supplemented with insulin (10 ng/mL), transferrin (25 ng/mL) and 10% fetal calf serum. After 4 h of plating the cells were placed in serum-free Ham's F-12 medium supplemented with insulin (10 ng/mL) and transferrin (25 ng/mL) for an additional 24 h. […] In some experiments cells were pre-treated with DFMO to up-regulate spermine uptake (Belting et al., 2003, J. Biol. Chem. 278: 47181-47189). Controls without growth factor as well as solvent (DMSO) controls were included. The total time of exposure to the various agents was 5 days. Cells were fixed in 1% glutaraldehyde dissolved in Hanks balanced salt solution (NaCl 80 g/L, KCl 4 g/l, glucose 10 g/L, KH2PO4 600 mg/L, NaHPO4 475 mg/L) for 15 min, then cell nuclei were stained with 0.1% crystal violet. After washing and cell lysis for 24 h in Triton X-100, the amount of bound dye was measured at A600 in a microplate photometer (Titertek multiscan). The results are presented as the difference between A600 obtained after 5 days and that obtained immediately after seeding of the cells (t=0).

Series [1] concerns rat C6 glioma cells implanted subcutaneously. The experiment in a line: Subcutaneous C6 glioma tumors in SCID mice. Format: in vivo. The procedure: (§4) Treatment with xyloside was daily contralateral subcutaneous injections (1.7 mM solution; 0.5 ml for mice, 5 ml for rats) for 2 weeks. DFMO (0.1% w/v) was administered via the drinking water.
(§5) Female SCIDnodCA mice (7-8 weeks old) or Fisher rats (12 week old) were kept under pathogen-free conditions in the animal barrier facility at the Biomedical Center, Lund University, according to the Swedish guidelines for humane treatment of laboratory animals. The experimental set-up was approved by the ethical committee for animal research in Malmö/Lund, Sweden. To generate tumors, rat C6 glioma cells or human bladder T24 carcinoma cells (1×10^6 cells in 200 μl PBS) were injected subcutaneously in the dorsal region of 7-8 week old mice (n=4-8) or intracerebrally in rats.
(§6) In the present studies, animals (n=8) received 1.7 mM Xyl-2-Nap-6-OH, i.e. a saturated solution, either ad libitum via the drinking water, or by daily injections either subcutaneously (0.5 ml for mice, 5 ml for rats) or intraperitoneally (0.5 ml) for a total period of up to 2 weeks. Controls received drinking water with no additives or daily injections with sterile water. Food and water intake and changes in body weight were monitored. The xyloside was administered either concurrent with or 3 weeks post-injection. In the latter case, the animals were randomly divided into control and treatment groups with no significant differences in tumor volume. The animals were sacrificed following 2-3 weeks of treatment, and tumor mass or volume was recorded.

For series [2], the system named is human bladder carcinoma T24 cells. Kind of series: Cellular growth assay, human bladder carcinoma T24 cells. Format: cell-based. The settings on record: for cytotoxic effect on T24 cells: 0.5 mM xyloside, FIG. 5A / FIG. 2.
Source text: as §1, §2, §3

In series [3] the test system is normal human lung fibroblasts. Kind of series: Cellular growth assay, normal human lung fibroblasts. Format: cell-based.
Source text: as §1, §2
The growth assay procedure has been described elsewhere (Mani et al., 1998, Cancer Res. 58: 1099-1104). Cells were seeded into 96-well microculture plates at 3000 cells/well in DMEM supplemented with insulin (10 ng/mL), transferrin (25 ng/mL) and 10% fetal calf serum. After 4 h of plating the cells were placed in serum-free Ham's F-12 medium supplemented with insulin (10 ng/mL) and transferrin (25 ng/mL) for an additional 24 h. […] After washing and cell lysis for 24 h in Triton X-100, the amount of bound dye was measured at A600 in a microplate photometer (Titertek multiscan). […]

The test system of series [4] is A549 cells. The experiment in a line: Growth inhibition of A549 cells. Format: cell-based. The settings on record: combination with DFMO and spermine-NONOate.
Series [5] concerns SV40 virus infected fibroblasts. The experiment in a line: Growth inhibition of SV40 virus infected fibroblasts. The conditions noted are these: combination with DFMO and spermine-NONOate. Format: cell-based.
Series [6] relates to HepG2 hepatoma cells. Kind of series: Growth inhibition of HepG2 hepatoma cells. In kind it is cell-based. The conditions noted are these: combination with DFMO and spermine-NONOate.
Series [7] relates to rat C6 glioma cells implanted intracerebrally. The experiment in a line: Intracerebral C6 glioma tumors in rats. Format: in vivo. As for the experimental part:
as §4, §5
as §6, with “In the latter case, the animals were randomly divided into control and treatment groups with no significant differences in tumor volume.” left out

The subject of series [8] is tumor cells located subcutaneously or orthotopically. The experiment in a line: Other animal experiments, tumor-bearing mice, various routes of administration. Format: in vivo. The procedure: as §5, §6
Treatment with Xyl-2-Nap-6-OH reduce the average tumor load by 70-97% in mice receiving the compound concomitant with tumor cell inoculation as well as in mice with pre-formed tumors. […] Side-effects via inhibition of proteoglycan synthesis in cartilage and connective tissues is unlikely, as xyloside concentrations greater than 2 mM are required for their inhibition in vitro (Moses et al., 1999, Eur, J. Biochem. 26: 879-884).

Series [9] in a line: Saturated solution used for dosing. Format: physicochemical. The conditions noted are these: drinking water / injection solution. The procedure: as §6
Series [10] deals with A549 cells. The settings on record: Mani et al. Glycobiology 14: 387-397; cited from earlier work.
Series [11] relates to SV40 virus infected fibroblasts. The settings on record: Mani et al. Glycobiology 14: 387-397; cited from earlier work.
For series [12], the system named is HepG2 hepatoma cells. The conditions noted are these: Mani et al. Glycobiology 14: 387-397; cited from earlier work.
Another series deals with cells. Kind of series: Uptake of xyloside when added to cells. In kind it is cell-based. An excerpt:
Referring to FIG. 4, the results of treating rat C6 glioma cells with peracetylated Gal-4-Xyl-2-Nap-6-OH are shown. […] The reason for this difference is that peracetylated Gal-4-Xyl-2-Nap-6-OH is deacetylated by non-specific esterases after uptake into cells, whereby the resulting non-acetylated Gal-4-Xyl-2-Nap-6-OH remains trapped inside the cell resulting in a much higher local concentration. Accordingly, non-acetylated Gal-4-Xyl-2-Nap-6-OH is not taken up when added to cells.

The conditions of series [13]: after uptake by DFMO-treated cells; cited from earlier work.

As for `NCCC[C@](N)(C(=O)O)C(F)F` [DFMO, α-difluoromethylornithine, reference compound], in the series with rat C6 glioma cells (5 mM DFMO alone), the “growth-inhibitory effect compared to untreated cells (control)” value is “no significant growth-inhibitory effect”. Also, the “higher concentration of DFMO in the drinking water required for the same effect with DFMO alone” value in series [1] (relative to 0.1% w/v DFMO given with Xyl-2-Nap-6-OH (83% reduction)) is given as 10-20 fold.
As to `CC(=O)OC[C@H]1O[C@@H](O[C@@H]2CO[C@@H](Oc3ccc4cc(OC(C)=O)ccc4c3)[C@H](OC(C)=O)[C@H]2OC(C)=O)[C@H](OC(C)=O)[C@@H](OC(C)=O)[C@H]1OC(C)=O` [peracetylated Gal-4-Xyl-2-Nap-6-OH], the “effect on cell growth” value was “complete growth-arrest” in the series with rat C6 glioma cells (0.2 mM xyloside alone); “significant cytotoxic effect” in the series on rat C6 glioma cells (xyloside in combination with 5 mM DFMO and 5 μM spermineNONOate). Also, the “potency relative to Xyl-2-Nap-6-OH at the same concentrations” value with rat C6 glioma cells (comparison of FIG. 4 with FIG. 1B) is reported as “at least 5 fold”.
As to `Oc1ccc2cc(OC3OCC(O)C(O)C3O)ccc2c1` (centres unmarked) [Xyl-2-Nap-6-OH], the inhibits growth in the series with rat C6 glioma cells (0.5 mM xyloside alone) was 65%; in the series on rat C6 glioma cells (0.5 mM xyloside combined with 5 mM DFMO and 5 μM spermineNONOate), 93%. The “effect on cell growth” value in [2] (0.2 mM xyloside alone, FIG. 2) was “marginally affected”; in series [2] (0.2 mM xyloside and 5 mM DFMO with 2.5 5 μM spermineNONOate), “insufficient”; in [2] (0.2 mM xyloside combined with 5 mM DFMO and 5 μM spermineNONOate, FIG. 2), “complete cell death”; in series [2] (0.5 mM xyloside alone, FIG. 2) it was “completely growth-arrested”. Besides, the “cytotoxic effect on T24 cells” value in series [2] is recorded as “marginally cytotoxic”. In addition, the “reduction of cell growth” value in series [3] (0.2 mM xyloside, 5 mM DFMO and 5 μM spermineNONOate, FIG. 3) was determined as 20%. In addition, the “effect of xyloside with DFMO and spermine-NONOate” value (with A549 cells [4]; in series [5]; in the series on HepG2 hepatoma cells [6]) was “Synergistic cytotoxic effects” each time. Moreover, the “subcutaneous C6 glioma tumor weight reduced” value in series [1] (SCID mice, daily contralateral s.c. injections of 1.7 mM solution, 0.5 ml, 2 weeks, FIG. 6A) worked out at 78%. In addition, the tumor-load reduced in [1] (mice treated with xyloside plus DFMO 0.1% w/v via the drinking water, FIG. 6C) turned out to be 83%. Moreover, the blood-brain barrier penetration result in [7] (inferred from reduced intracerebral tumor volume in rats) was “can penetrate the blood-brain barrier”. Further, the tumor volume result in series [7] (rats, intracerebral C6 glioma, daily s.c. injections of 1.7 mM solution, 5 ml, 2 weeks, FIG. 6B) is recorded as “reduced”. In addition, the “reduction of average tumor load” value in [8] (mice, compound given concomitant with tumor cell inoculation or to pre-formed tumors) was 70-97%. Moreover, the “toxic side-effects in vivo” value in series [8] (mouse, in vivo) is “lack of obvious toxic side-effects”. The “absorption and availability to tumor cells” value in series [8] (various ways of administration including oral) is “adsorbed and made available to tumor cells”. In series [9], the “concentration of saturated solution” value amounted to 1700 µM. Further, the growth inhibition entry (in the series on A549 cells [10]; in [11]; with HepG2 hepatoma cells [12]) was “selectively inhibits growth” in each case.
On to `OC[C@H]1O[C@@H](O[C@@H]2CO[C@@H](Oc3ccc4cc(O)ccc4c3)[C@H](O)[C@H]2O)[C@H](O)[C@@H](O)[C@H]1O` [Gal-4-Xyl-2-Nap-6-OH, 2-(6-hydroxynaphthyl)-4-O-(β-D-galactopyranosyl)-β-D-xylopyranoside], for which the “uptake when added to cells” value in the series with cells was “not taken up”.
For `CC(=O)Oc1ccc2cc(O[C@@H]3OC[C@@H](OC(C)=O)[C@H](OC(C)=O)[C@H]3OC(C)=O)ccc2c1` [peracetylated Xyl-2-Nap-6-OH], the “cytotoxic effect on T24 cells” value in [2] is listed as “clear cytotoxic effect”. In addition, in series [3] (0.5 mM xyloside, FIG. 5B), the “effect on growth of normal human fibroblasts” value is “does not affect growth”.
As to `NCCCNCCCCN(CCCN)/[N+]([O-])=N/O` [spermineNONOate, reference compound], the “growth-inhibitory effect compared to untreated cells (control)” value with rat C6 glioma cells (5 μM spermineNONOate alone) is listed as “no significant growth-inhibitory effect”. For the same compound, the “half-life of intracellular NO release” value in series [13] was 4 h.
